Patent US12497408B2, “Tetracyclic compounds and methods for the treatment of Zika virus infection” (priority 2021, dated 2025)

These molecules were tested on ZIKV (assay: ZIKV reporter virus-based antiviral screening on Huh7 cells). Details: Huh7 cells infected with recombinant luciferase reporter ZIKV (MOI about 0.1), 48 hrs, luciferase signal.
Assay type: cell-based, Zika virus
Text: Protocol for ZIKV reporter virus-based antiviral screening on Huh7 cells:
• Human hepatocyte-derived carcinoma cell line (Huh7) 2. Reagents • ViviRen™ Live Cell Substrate (Promega, Cat #E6492) or Nano Glo assay system (Promega: N1130) • White opaque 96-well TC-treated microplates (Corning, Cat #3916) • 96-well Clear V-Bottom TC-treated Microplate (Corning, Cat #3894) • Complete cell culture media: DMEM (Gibco, Cat #10569) supplemented with 10% FBS (HyClone, Cat #SH30071.03IH25-40)+1% MEM Non-Essential Amino Acids Solution 100×(Gibco, Cat #11140050)+1% Penicillin-Streptomycin (10,000 U/mL) (Gibco, Cat #15140122). • Assay media: DMEM media (Gibco, Cat #31053028) supplemented with 2% FBS, 2% GlutaMAX™ Supplement (Gibco Cat #35050061), 1% Sodium Pyruvate solution (Gibco, Cat #11360070), 1% MEM Non-Essential Amino Acids Solution 100× and 1% Penicillin-Streptomycin (10,000 U/mL). • Trypsin-EDTA solution (Gibco, Cat #25200056) 3. Virus • Recombinant ZIKV strain with Renilla luciferase gene (strain FSS-Rlu) or Nano luciferase gene (Strain PRV-Nano, Dakar-Nano) 4. Instruments • BioTek Cytation 5 or other plate-readers for chemiluminescence detection model. • Eppendorf plate centrifuge • Plate shaker • Eppendorf multichannel pipettes Procedures Day 1: Preparation of Cells • Human hepatocyte-derived carcinoma cell line (Huh7) cells were detached from a T-175 flask by using a Trypsin-EDTA solution. The detached cells were suspended in complete culture media in a sterile 50-ml conical tube. • The 50-ml conical tube was centrifuged at 1200×rpm for 3 min at room temperature. • The cells were resuspended in assay media. The cell numbers were counted, and the cells diluted to a density of 3×10^5 cells/ml. • The cells were plated at 50 μl cells per well in White opaque 96-well plates (assay plates). Gently shake the plates to ensure cells to attach to the plate evenly. • The plated cells were incubated in a humidified incubator (37° C. with 5% CO2). Day 2: Infection • 1) Nine serial (2-fold or 3-fold) concentrated compounds were prepared using 90% DMSO solution and DMSO controls in a clear V-bottom 96-well plate (compound plate). • For example:
• 2) The reporter virus stock was diluted to a concentration of 3×10^4 FFU (FFU: focus-forming unit)/ml using the assay media. 200 μl diluted virus per well was aliquoted into a clear V-bottom 96-well plate (mixing plate). • 3) 1 μl above 400×concentrated compound dilutions was added from the compound plate to each well of the mixing plate. The plates were shaken on a plate shaker for 5 min. • 4) 50 μl compound-virus mixture was added into each well of the assay plates (the MOI is about 0.1). The plates were shaken gently by mixing the virus evenly. • An example of the format for assay plate:
• control. • 5) The plates were centrifuged at 1000 rpm for 15 s. • 6) The plates were incubated at 37° C. with 5% CO2 in a humidified incubator for 48 hrs. Day 4: Read Luciferase Signals • 7) The ViviRen™ Live Cell Substrate was diluted in assay media for 3000× folds. 25 μl of diluted substrates was added into each well of the assay plates. • For Nano-Glo assay system, 50 μl diluted substrates (50×fold diluted from the stock in assay buffer) were added. • 8) The plates were incubated at room temperature for 5 min. • 9) Optimally, cell viability is measured using the Promega Cell-titer Glo kit (only used when ZIKV-Rlu was used for infection). • 10) Luciferase signals were read using the Cytation 5 with gain value of 120-150. Data Analysis • a. The luciferase signals from DMSO-treated groups (un-treated controls) were set as 100%. The relative luciferase signals were obtained by normalizing the luciferase signals from each dilution-treated group to that of the controls. • b.

SMILES	EC50 [nM]
COC(=O)N[C@H](C(=O)N1[C@H](c2nc(Cl)c(-c3cc4c5c(c3)OCc3cc(-c6[nH]c([C@@H]7C[C@@H]8C[C@@H]8N7C(=O)[C@@H](NC(=O)OC)C(C)C)nc6Cl)cc(c3-5)OC4)[nH]2)C[C@@H]2C[C@@H]21)C(C)C [Compound 11, dimethyl ((2S,2′S)-((1S,1′S,3S,3′S,5S,5′S)-((5,10-dihydrochromeno[5,4,3-cde]chromene-2,7-diyl)bis(4-chloro-1H-imidazole-5,2-diyl))bis(2-azabicyclo[3.1.0]hexane-3,2-diyl))bis(3-methyl-1-oxobutane-1,2-diyl))dicarbamate]	9.3

Same assay, conditions: Zika virus, Huh-7, 48 h, Huh7 cells infected with recombinant luciferase reporter ZIKV (MOI about 0.1), luciferase signal

SMILES	EC50 [nM]
COC(=O)N[C@H](C(=O)N1C[C@H](C)C[C@H]1c1nc(Cl)c(-c2cc3c4c(c2)OCc2cc(-c5[nH]c([C@@H]6C[C@@H](C)CN6C(=O)[C@@H](NC(=O)OC)C(C)C)nc5Cl)cc(c2-4)OC3)[nH]1)C(C)C [Compound 1, dimethyl ((2S,2′S)-((3R,3′R,5S,5′S)-((5,10-dihydrochromeno[5,4,3-cde]chromene-2,7-diyl)bis(4-chloro-1H-imidazole-5,2-diyl))bis(3-methylpyrrolidine-5,1-diyl))bis(3-methyl-1-oxobutane-1,2-diyl))dicarbamate]	4.2
CC[C@H](C)[C@H](NC(=O)OC)C(=O)N1C[C@H](C)C[C@H]1c1nc(Cl)c(-c2cc3c4c(c2)OCc2cc(-c5[nH]c([C@@H]6C[C@@H](C)CN6C(=O)[C@@H](NC(=O)OC)[C@@H](C)CC)nc5Cl)cc(c2-4)OC3)[nH]1 [Compound 2, dimethyl ((2S,2′S,3S,3′S)-((3R,3′R,5S,5′S)-((5,10-dihydrochromeno[5,4,3-cde]chromene-2,7-diyl)bis(4-chloro-1H-imidazole-5,2-diyl))bis(3-methylpyrrolidine-5,1-diyl))bis(3-methyl-1-oxopentane-1,2-diyl))dicarbamate]	6.5
COC(=O)N[C@H](C(=O)N1C[C@H](C)C[C@H]1c1nc(Cl)c(-c2cc3c4c(c2)OCc2cc(-c5[nH]c([C@@H]6C[C@@H](C)CN6C(=O)[C@@H](NC(=O)OC)C(C)(C)C(F)(F)F)nc5Cl)cc(c2-4)OC3)[nH]1)C(C)(C)C(F)(F)F [Compound 3, dimethyl ((2S,2′S)-((3R,3′R,5S,5′S)-((5,10-dihydrochromeno[5,4,3-cde]chromene-2,7-diyl)bis(4-chloro-1H-imidazole-5,2-diyl))bis(3-methylpyrrolidine-5,1-diyl))bis(4,4,4-trifluoro-3,3-dimethyl-1-oxobutane-1,2-diyl))dicarbamate]	5.2
COC(=O)N[C@H](C(=O)N1C[C@@H](OC)C[C@H]1c1nc(Cl)c(-c2cc3c4c(c2)OCc2cc(-c5[nH]c([C@@H]6C[C@H](OC)CN6C(=O)[C@@H](NC(=O)OC)C(C)C)nc5Cl)cc(c2-4)OC3)[nH]1)C(C)C [Compound 4, dimethyl ((2S,2′S)-((3S,3′S,5S,5′S)-((5,10-dihydrochromeno[5,4,3-cde]chromene-2,7-diyl)bis(4-chloro-1H-imidazole-5,2-diyl))bis(3-methoxypyrrolidine-5,1-diyl))bis(3-methyl-1-oxobutane-1,2-diyl))dicarbamate]	19.2
CC[C@H](C)[C@H](NC(=O)OC)C(=O)N1C[C@@H](OC)C[C@H]1c1nc(Cl)c(-c2cc3c4c(c2)OCc2cc(-c5[nH]c([C@@H]6C[C@H](OC)CN6C(=O)[C@@H](NC(=O)OC)[C@@H](C)CC)nc5Cl)cc(c2-4)OC3)[nH]1 [Compound 5, dimethyl ((2S,2′S,3S,3′S)-((3S,3′S,5S,5′S)-((5,10-dihydrochromeno[5,4,3-cde]chromene-2,7-diyl)bis(4-chloro-1H-imidazole-5,2-diyl))bis(3-methoxypyrrolidine-5,1-diyl))bis(3-methyl-1-oxopentane-1,2-diyl))dicarbamate]	12.4
COC(=O)N[C@H](C(=O)N1C[C@@H](OC)C[C@H]1c1nc(Cl)c(-c2cc3c4c(c2)OCc2cc(-c5[nH]c([C@@H]6C[C@H](OC)CN6C(=O)[C@@H](NC(=O)OC)C(C)(C)C(F)(F)F)nc5Cl)cc(c2-4)OC3)[nH]1)C(C)(C)C(F)(F)F [Compound 6, dimethyl ((2S,2′S)-((3S,3′S,5S,5′S)-((5,10-dihydrochromeno[5,4,3-cde]chromene-2,7-diyl)bis(4-chloro-1H-imidazole-5,2-diyl))bis(3-methoxypyrrolidine-5,1-diyl))bis(4,4,4-trifluoro-3,3-dimethyl-1-oxobutane-1,2-diyl))dicarbamate]	4.9
COC(=O)N[C@H](C(=O)N1CC(C)(C)C[C@H]1c1nc(Cl)c(-c2cc3c4c(c2)OCc2cc(-c5[nH]c([C@@H]6CC(C)(C)CN6C(=O)[C@@H](NC(=O)OC)C(C)C)nc5Cl)cc(c2-4)OC3)[nH]1)C(C)C [Compound 7, dimethyl ((2S,2′S)-((5S,5′S)-((5,10-dihydrochromeno[5,4,3-cde]chromene-2,7-diyl)bis(4-chloro-1H-imidazole-5,2-diyl))bis(3,3-dimethylpyrrolidine-5,1-diyl))bis(3-methyl-1-oxobutane-1,2-diyl))dicarbamate]	4.2
CC[C@H](C)[C@H](NC(=O)OC)C(=O)N1CC(C)(C)C[C@H]1c1nc(Cl)c(-c2cc3c4c(c2)OCc2cc(-c5[nH]c([C@@H]6CC(C)(C)CN6C(=O)[C@@H](NC(=O)OC)[C@@H](C)CC)nc5Cl)cc(c2-4)OC3)[nH]1 [Compound 8, dimethyl ((2S,2′S,3S,3′S)-((5S,5′S)-((5,10-dihydrochromeno[5,4,3-cde]chromene-2,7-diyl)bis(4-chloro-1H-imidazole-5,2-diyl))bis(3,3-dimethylpyrrolidine-5,1-diyl))bis(3-methyl-1-oxopentane-1,2-diyl))dicarbamate]	4.4
COC(=O)N[C@H](C(=O)N1CC(C)(C)C[C@H]1c1nc(Cl)c(-c2cc3c4c(c2)OCc2cc(-c5[nH]c([C@@H]6CC(C)(C)CN6C(=O)[C@@H](NC(=O)OC)C(C)(C)C(F)(F)F)nc5Cl)cc(c2-4)OC3)[nH]1)C(C)(C)C(F)(F)F [Compound 9, dimethyl ((2S,2′S)-((5S,5′S)-((5,10-dihydrochromeno[5,4,3-cde]chromene-2,7-diyl)bis(4-chloro-1H-imidazole-5,2-diyl))bis(3,3-dimethylpyrrolidine-5,1-diyl))bis(4,4,4-trifluoro-3,3-dimethyl-1-oxobutane-1,2-diyl))dicarbamate]	4.6
COC(=O)N[C@H](C(=O)N1[C@H](c2nc(Cl)c(-c3cc4c5c(c3)OCc3cc(-c6[nH]c([C@@H]7C[C@@H]8C[C@@H]8N7C(=O)[C@@H](NC(=O)OC)C(C)C)nc6Cl)cc(c3-5)OC4)[nH]2)C[C@@H]2C[C@@H]21)C(C)C [Compound 10, dimethyl ((2S,2′S)-((1S,1′S,3S,3′S,5S,5′S)-((5,10-dihydrochromeno[5,4,3-cde]chromene-2,7-diyl)bis(4-chloro-1H-imidazole-5,2-diyl))bis(2-azabicyclo[3.1.0]hexane-3,2-diyl))bis(3-methyl-1-oxobutane-1,2-diyl))dicarbamate]	7
COC(=O)N[C@H](C(=O)N1[C@H](c2nc(Cl)c(-c3cc4c5c(c3)OCc3cc(-c6[nH]c([C@@H]7C[C@@H]8C[C@@H]8N7C(=O)[C@@H](NC(=O)OC)C(C)(C)C(F)(F)F)nc6Cl)cc(c3-5)OC4)[nH]2)C[C@@H]2C[C@@H]21)C(C)(C)C(F)(F)F [Compound 12, dimethyl ((2S,2′S)-((1S,1′S,3S,3′S,5S,5′S)-((5,10-dihydrochromeno[5,4,3-cde]chromene-2,7-diyl)bis(4-chloro-1H-imidazole-5,2-diyl))bis(2-azabicyclo[3.1.0]hexane-3,2-diyl))bis(4,4,4-trifluoro-3,3-dimethyl-1-oxobutane-1,2-diyl))dicarbamate]	11.9
